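Here, GI50 denotes the concentration required for 50% inhibition of growth. At the TGI there is no net growth.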
Experiments:
Test in all cases: NCI-60 cell line screen, 384-well format
[1] = test system: RPMI-8226 leukemia
[2] = test system: RXF 393 renal
[3] = test system: ACHN renal
[4] = test system: OVCAR-8 ovarian
[5] = test system: A498 renal
[6] = test system: HCT-116 colon
[7] = test system: NCI/ADR-RES ovarian
[8] = test system: UACC-62 melanoma
[9] = test system: SK-MEL-2 melanoma
[10] = test system: CAKI-1 renal
[11] = test system: COLO 205 colon
[12] = test system: DU-145 prostate
[13] = test system: NCI-H226 lung
[14] = test system: MDA-MB-435 melanoma
[15] = test system: SK-MEL-5 melanoma
[16] = test system: SW-620 colon
[17] = test system: SR leukemia
[18] = test system: M14 melanoma
[19] = test system: SK-MEL-28 melanoma
[20] = test system: OVCAR-3 ovarian
[21] = test system: UO-31 renal
[22] = test system: HCC-2998 colon
[23] = test system: MDA-MB-468 breast
[24] = test system: PC-3 prostate
[25] = test system: HOP-92 NSCLC
[26] = test system: HCT-15 colon
[27] = test system: SNB-19 CNS
[28] = test system: SN12C renal
[29] = test system: K-562 leukemia
[30] = test system: KM12 colon
[31] = test system: OVCAR-5 ovarian
[32] = test system: NCI-H522 lung
[33] = test system: U251 glioblastoma
[34] = test system: HL-60(TB) leukemia
[35] = test system: OVCAR-4 ovarian
[36] = test system: MALME-3M melanoma
[37] = test system: MOLT-4 leukemia
[38] = test system: TK-10 renal
[39] = test system: BT-549 breast
[40] = test system: UACC-257 melanoma
[41] = test system: LOX IMVI melanoma
[42] = test system: HS 578T breast
[43] = test system: SF-539 CNS
[44] = test system: A549 NSCLC
[45] = test system: IGROV1 ovarian
[46] = test system: NCI-H322M lung
[47] = test system: T-47D breast
[48] = test system: SK-OV-3 ovarian
[49] = test system: 786-0 renal
[50] = test system: EKVX NSCLC
[51] = test system: SNB-75 CNS
[52] = test system: SF-268 CNS
[53] = test system: MCF7 breast
[54] = test system: HT29 colon
[55] = test system: MDA-MB-231 breast
[56] = test system: NCI-H23 lung
[57] = test system: SF-295 CNS
[58] = test system: CCRF-CEM leukemia
[59] = test system: NCI-H460 NSCLC
[60] = test system: HOP-62 NSCLC

O=C(c1ccc(F)c(F)c1Nc1ccc(I)cc1F)N1CC(O)([C@@H]2CCCCN2)C1
GI50 [1]: 1.05 µM
TGI [1]: 5.22 µM
GI50 [2]: 0.725 µM
TGI [2]: 2.58 µM
GI50 [3]: 1.49 µM
TGI [3]: 12.2 µM
GI50 [4]: 3.86 µM
TGI [4]: 10.5 µM
GI50 [5]: 0.472 µM
TGI [5]: 2.95 µM
GI50 [6]: 0.0703 µM
TGI [6]: 0.834 µM
GI50 [7]: 3.42 µM
TGI [7]: 16.1 µM
GI50 [8]: < 0.01 µM
TGI [8]: 0.161 µM
GI50 [9]: 0.0182 µM
TGI [9]: 0.0529 µM
GI50 [10]: 0.565 µM
TGI [10]: 10.4 µM
GI50 [11]: < 0.01 µM
TGI [11]: 0.0274 µM
GI50 [12]: 1.25 µM
TGI [12]: 15.5 µM
GI50 [13]: 0.23 µM
TGI [13]: 6.32 µM
GI50 [14]: < 0.01 µM
TGI [14]: 15.8 µM
GI50 [15]: < 0.01 µM
TGI [15]: 0.0703 µM
GI50 [16]: 0.0417 µM
TGI [16]: 5.83 µM
GI50 [17]: 1.07 µM
TGI [17]: 2.33 µM
GI50 [18]: < 0.01 µM
TGI [18]: 0.0146 µM
GI50 [19]: < 0.01 µM
TGI [19]: 0.0163 µM
GI50 [20]: 5.55 µM
TGI [20]: 17.2 µM
GI50 [21]: 0.297 µM
TGI [21]: 3.77 µM
GI50 [22]: 0.0102 µM
TGI [22]: 0.077 µM
GI50 [23]: 3.89 µM
TGI [23]: 9.32 µM
GI50 [24]: 7.65 µM
TGI [24]: 19.8 µM
GI50 [25]: 0.153 µM
TGI [25]: 0.599 µM
GI50 [26]: 1.25 µM
TGI [26]: 9.73 µM
GI50 [27]: 5.49 µM
TGI [27]: 18.5 µM
GI50 [28]: 0.645 µM
TGI [28]: 16 µM
GI50 [29]: 0.284 µM
TGI [29]: 1.47 µM
GI50 [30]: 0.136 µM
TGI [30]: 6.91 µM
GI50 [31]: 0.126 µM
TGI [31]: 7.96 µM
GI50 [32]: 2.6 µM
TGI [32]: 17.3 µM
GI50 [33]: 0.82 µM
TGI [33]: 8.28 µM
GI50 [34]: 0.0101 µM
TGI [34]: 0.375 µM
GI50 [35]: 2.7 µM
TGI [35]: 12.4 µM
GI50 [36]: < 0.01 µM
GI50 [37]: 2.02 µM
TGI [37]: 4.83 µM
GI50 [38]: 0.956 µM
TGI [38]: 10.9 µM
GI50 [39]: 1.4 µM
TGI [39]: 9.16 µM
GI50 [40]: < 0.01 µM
TGI [40]: 0.0268 µM
TGI [41]: 0.527 µM
GI50 [42]: 4.74 µM
TGI [42]: 15.9 µM
GI50 [43]: 0.969 µM
TGI [43]: 7.01 µM
GI50 [44]: 0.0975 µM
TGI [44]: 2.73 µM
GI50 [45]: 0.12 µM
TGI [45]: 4.51 µM
GI50 [46]: 0.217 µM
TGI [46]: 6.61 µM
GI50 [47]: 4.79 µM
TGI [47]: 12.5 µM
GI50 [48]: 5.11 µM
TGI [48]: 18.6 µM
GI50 [49]: 1.52 µM
TGI [49]: 5 µM
GI50 [50]: 1.34 µM
TGI [50]: 14.2 µM
GI50 [51]: 1.39 µM
TGI [51]: 6.7 µM
GI50 [52]: 8.35 µM
TGI [52]: 20.5 µM
GI50 [53]: 3.55 µM
TGI [53]: 7.29 µM
GI50 [54]: 0.0101 µM
TGI [54]: 4.24 µM
GI50 [55]: 0.172 µM
TGI [55]: 1.36 µM
GI50 [56]: 0.0505 µM
TGI [56]: 0.708 µM
GI50 [57]: 6.2 µM
TGI [57]: 12.2 µM
GI50 [58]: 3.35 µM
TGI [58]: 7.67 µM
GI50 [59]: 1.27 µM
TGI [59]: 5.74 µM
GI50 [60]: 0.403 µM
TGI [60]: 13.5 µM

C=Cc1c(C)c2cc3nc(cc4[nH]c(cc5nc(cc1[nH]2)C(C)=C5CCC(=O)O)c(CCC(=O)OC)c4C)[C@@]1(C)C3=CC=C(C(=O)OC)[C@H]1C(=O)OC
GI50 [1]: 1.5 µM
TGI [1]: 2.84 µM
GI50 [2]: 0.668 µM
TGI [2]: 2.56 µM
GI50 [3]: 2.46 µM
TGI [3]: 6.83 µM
GI50 [4]: 2.09 µM
TGI [4]: 6.68 µM
GI50 [5]: 1.78 µM
TGI [5]: 4.06 µM
GI50 [6]: 1.28 µM
TGI [6]: 2.77 µM
GI50 [7]: 1.91 µM
TGI [7]: 4.63 µM
GI50 [8]: 1.88 µM
TGI [8]: 3.63 µM
GI50 [9]: 1.64 µM
TGI [9]: 3.33 µM
GI50 [10]: 2.85 µM
TGI [10]: 7.69 µM
GI50 [11]: 2.45 µM
TGI [11]: 5.95 µM
GI50 [12]: 2.22 µM
TGI [12]: 5.49 µM
GI50 [13]: 1.48 µM
TGI [13]: 3.36 µM
GI50 [14]: 2.36 µM
TGI [14]: 5.48 µM
GI50 [15]: 1.3 µM
TGI [15]: 2.68 µM
GI50 [16]: 3.22 µM
TGI [16]: 9.29 µM
GI50 [17]: 0.579 µM
TGI [17]: 1.85 µM
GI50 [18]: 2.28 µM
TGI [18]: 5.23 µM
GI50 [19]: 1.98 µM
TGI [19]: 4.25 µM
GI50 [20]: 1.74 µM
TGI [20]: 3.41 µM
GI50 [21]: 2.33 µM
TGI [21]: 6.21 µM
GI50 [22]: 1.54 µM
TGI [22]: 3.11 µM
GI50 [23]: 0.75 µM
TGI [23]: 2.67 µM
GI50 [24]: 1.93 µM
TGI [24]: 4.24 µM
GI50 [25]: 1.92 µM
TGI [25]: 4.32 µM
GI50 [26]: 1.73 µM
TGI [26]: 3.32 µM
GI50 [27]: 2.76 µM
TGI [27]: 9.04 µM
GI50 [28]: 2.88 µM
TGI [28]: 9.35 µM
GI50 [29]: 1.03 µM
TGI [29]: 9.64 µM
GI50 [30]: 1.76 µM
TGI [30]: 3.66 µM
GI50 [31]: 2.49 µM
TGI [31]: 5.93 µM
GI50 [32]: 1.33 µM
TGI [32]: 3.66 µM
GI50 [33]: 1.61 µM
TGI [33]: 3.97 µM
GI50 [34]: 1.87 µM
TGI [34]: 3.29 µM
GI50 [35]: 1.25 µM
TGI [35]: 3.61 µM
GI50 [36]: 1.66 µM
TGI [36]: 3.92 µM
GI50 [37]: 1.23 µM
TGI [37]: 2.49 µM
GI50 [38]: 2.4 µM
TGI [38]: 6.19 µM
GI50 [39]: 1.32 µM
TGI [39]: 3.3 µM
GI50 [40]: 1.64 µM
TGI [40]: 3.87 µM
GI50 [41]: 2.64 µM
TGI [41]: 4.81 µM
GI50 [43]: 1.65 µM
TGI [43]: 3.22 µM
GI50 [44]: 1.65 µM
TGI [44]: 4.09 µM
GI50 [45]: 1.93 µM
TGI [45]: 4.73 µM
GI50 [46]: 1.88 µM
TGI [46]: 4.54 µM
GI50 [47]: 0.999 µM
TGI [47]: 6.82 µM
GI50 [48]: 1.92 µM
TGI [48]: 4.73 µM
GI50 [49]: 2.26 µM
TGI [49]: 6.55 µM
GI50 [52]: 1.94 µM
TGI [52]: 5.63 µM
GI50 [53]: 1.94 µM
TGI [53]: 5.76 µM
GI50 [54]: 1.98 µM
TGI [54]: 4.72 µM
GI50 [55]: 1.51 µM
TGI [55]: 4.38 µM
GI50 [56]: 0.333 µM
TGI [56]: 1.28 µM
GI50 [57]: 1.28 µM
TGI [57]: 2.94 µM
GI50 [58]: 1.19 µM
TGI [58]: 2.71 µM
GI50 [59]: 1.69 µM
TGI [59]: 3.26 µM
GI50 [60]: 1.7 µM
TGI [60]: 4.16 µM

Source: PubChem BioAssay (NCI)
